Series [1] in a line: Binding affinity DPPC multilamellar vesicles assessed as pre-transition temperature at 1:20 compound/lipid ratio after 2 hrs by differential scanning calorimetry method (reference value: 34.10 degC).
Series [2] can be described thus: Binding affinity DPPC multilamellar vesicles assessed as main transition temperature at 1:10 compound/lipid ratio after 2 hrs by differential scanning calorimetry method (reference value: 41.98 degC). For orientation: Differential scanning calorimetry records heat flow against a reference as temperature is scanned.
For series [3], the system named is HepG2. In words: Antiproliferative activity against human HepG2 cells assessed as cell growth at 10^-4 ug/ml after 48 hrs by SRB assay relative to control. The class given is functional. Conditions: HepG2, 48 h, read-out: Activity.
A short description of series [4]: Binding affinity DPPC multilamellar vesicles after 2 hrs by centrifugation method. The class given is physicochemical.
Series [5] is described as follows: Binding affinity DPPC multilamellar vesicles assessed as pre-transition temperature at 1:10 compound/lipid ratio after 2 hrs by differential scanning calorimetry method (reference value: 34.10 degC).
In series [6] the test system is K562. The experiment in a line: Antiproliferative activity against human K562 cells assessed as cell growth at 10^-4 ug/ml after 48 hrs by SRB assay relative to control. The class given is functional. Conditions: K562, 48 h, read-out: Activity.
Series [7] deals with Radical scavenging activity. The experiment in a line: Antioxidant activity assessed as DPPH radical scavenging activity after 30 mins. The class given is functional. In general terms: DPPH is a stable violet radical that fades when it is reduced.
Series [8] in a line: Binding affinity DPPC multilamellar vesicles assessed as main transition temperature at 1:2 compound/lipid ratio after 2 hrs by differential scanning calorimetry method (reference value: 41.98 degC).
Series [9] in a line: Binding affinity DPPC multilamellar vesicles assessed as main transition temperature at 1:5 compound/lipid ratio after 2 hrs by differential scanning calorimetry method (reference value: 41.98 degC).
Series [10] can be described thus: Binding affinity to 0.5 mg/ml of DPPC multilamellar vesicles at 100 uM after 2 hrs by centrifugation method. The class given is physicochemical.
Series [11] is described as follows: Binding affinity DPPC multilamellar vesicles assessed as main transition temperature at 1:20 compound/lipid ratio after 2 hrs by differential scanning calorimetry method (reference value: 41.98 degC).
Series [12] relates to MCF7. The experiment in a line: Antiproliferative activity against human MCF7 cells assessed as cell growth at 10^-4 ug/ml after 48 hrs by SRB assay relative to control. Conditions: MCF7, 48 h, read-out: Activity. The class given is functional. For orientation: The SRB assay estimates cell density from bound dye.
Series [13] in a line: Binding affinity DPPC multilamellar vesicles assessed as chemical shift at 1:5 compound/lipid ratio at 333 K by nuclear magnetic resonance analysis.
Series [14] is described as follows: Binding affinity DPPC multilamellar vesicles assessed as chemical shift at 1:5 compound/lipid ratio at 303 K by nuclear magnetic resonance analysis.
The nature of series [15]: Binding affinity DPPC multilamellar vesicles assessed as chemical shift at 1:5 compound/lipid ratio at 323 K by nuclear magnetic resonance analysis.

Converted amounts (≈) assume the structure as drawn. The source made the active and inactive calls. No cut-off for these calls is given here.

The term IC50 denotes the midpoint of a concentration-inhibition curve.

Turning to `O=c1c(O)c(-c2ccc(O)c(O)c2)oc2cc(O)ccc12` [FISETIN], the T in series [1] stood at 30.1 °C; in [2] it was 39.3 °C; in series [5], 26.2 °C; in [8], 39.2 °C; in [9], 38.3 °C; in series [11], 40.8 °C. The growth at 0.0001 µg/mL in [3] was found to be 62.8%; in series [6], 33.7%; in [12], 47.1%. This compound also yielded a Kapp in [4] of 10438 M⁻¹. Moreover, the IC50 in series [7] came to 9.26 µg/mL (≈ 32.4 µM). Besides, in series [10], the Activity is recorded as 60%. Besides, the result in series [13], in [14] and in [15] was Active.
With `O=c1c(O)c(-c2ccccc2)oc2cc(O)cc(O)c12` [GALANGIN], the T in [2] came to 37.9 °C; in [8] it was 36.5 °C; in series [9], 37.6 °C; in series [11], 38.7 °C. The growth at 0.0001 µg/mL in [3] turned out to be 23.7%; in series [6] it was 74.8%; in series [12] it was 68.2%. In addition, the Kapp in series [4] is 16701 M⁻¹. Moreover, the IC50 in series [7] was determined as 11.4 µg/mL (≈ 42.2 µM). In series [10], this compound came in with an Activity of 60%. For the same compound, the result in series [13], in series [14] and in series [15] was Active.
For `O=c1c(O)c(-c2ccc(O)c(O)c2)oc2cc(O)cc(O)c12` [QUERCETIN], the T in series [2] was 39.7 °C; in [8] it was 41 °C; in series [9] it was 39.6 °C; in series [11], 40.2 °C. Also, the growth at 0.0001 µg/mL is -5.4% in [3], 12.4% in [6] and 8.3% in series [12]. Also, the Kapp in series [4] was 10710 M⁻¹. For the same compound, the IC50 in series [7] amounted to 9.14 µg/mL (≈ 30.2 µM). In series [10], this compound displayed an Activity of 60%. Besides, the outcome in series [13], in series [14] and in series [15] was Active.

The values are drawn from ChEMBL document CHEMBL3232812, “In-vitro anti-proliferative and anti-oxidant activity of galangin, fisetin and quercetin: role of localization and intermolecular interaction in model membrane” (Eur J Med Chem, 2014).
